The text below walks through data of patent US8921372B2, “Inhibitors of hepatitis C virus” (Theravance Biopharma R&D IP, LLC, priority 2010, dated 2014).

Some results are limits rather than exact numbers.

The test system of this experiment is HCV genotype 1a replicon cell line (APC89; Huh7.5 cell background). As to the kind of experiment: HCV Genotype 1a Replicon Assay (NS3-specific protease activity readout). Type of experiment: cell-based. Conditions: Hepatitis C virus, 72 hour incubation, read-out: Genotype 1a (pEC50 class, HCV genotype 1a replicon assay) (converted). The method, then: Assay 2: HCV Genotype 1a Replicon Assay
The HCV genotype 1a replicon cell line was obtained from Apath LLC (APC89; Huh7.5 cell background). This subgenomic replicon contains the N-terminus of the HCV core protein fused to the neomycin-resistance selectable marker. The EMCV IRES lies downstream and drives expression of the non-structural proteins NS3-NS5B. Compound potencies were determined using the NS3-specific protease activity in lysates as a measurement of compound inhibition of replicon levels.
Cells were grown at 37° C. in a 5% CO2 humidified incubator in DMEM (Invitrogen) with 10% FBS (HyClone), 1×NEAA (Invitrogen), 1× Pen-Strep (Invitrogen), and 850 μg/mL G418 (Invitrogen). On day 1 of the assay, cells were plated at 15,000 cells/well in black 96-well tissue culture plates (Costar) in 200 μL media lacking G418. Four hours later, once the cells had adhered, the media was removed and replaced with media (no G418) containing dose-responses of test compounds. Compounds were initially diluted in DMSO and then diluted another 200× in media to bring the final DMSO concentration down to 0.5%. The cells were incubated with test compounds for 48 or 72 hours. At the end of the incubation period, media and compound were removed from the plates.
To determine the NS3-specific protease activity in lysates, the cells were lysed at room temperature in 50 μL/well of 50 mM Hepes pH 7.5, 150 mM NaCl, 15% Glycerol, 0.15% Triton X-100, 10 mM DTT for 20 minutes with shaking. 50 μL of an NS3/4a protease-specific FRET substrate (Anaspec RET S1 Cat#22991) was then added to the wells at a final concentration of 15 μM. The plates were incubated at 37° C. for 20 minutes, which corresponds to a timepoint at which the protease activity is still in the linear phase. Protease activity was determined by measuring fluorescence (Excitation: 340 nm; Emission: 509 nm).
To analyze the data, the fluorescence was plotted vs. the compound concentration, and EC50 values were determined from a 4-parameter robust fit model using GraphPad Prism software.
In general terms: Replicon systems follow genome replication, usually without infectious particles.
Regarding `CCOc1cc(NC(=O)c2ccc(N3CCN(C(=O)NC)C[C@H]3C)nc2)ccc1-c1ccc(-c2c[nH]c([C@@H]3CCCN3C(=O)[C@@H](NC(=O)OC)C(C)C)n2)cc1` [Example 23], the EC50 is 0.1 to 1 nM. Take `COC(=O)N[C@H](C(=O)N1CCC[C@H]1c1nc(-c2ccc(-c3cc(F)c(NC(=O)c4ccc(N5CCN(C(=O)NC(C)C)C[C@H]5C)nc4)cc3OC(F)(F)F)cc2)c[nH]1)C(C)C` [Example 27-39]: the EC50 is 0.1 to 1 nM. As for `COCCNC(=O)N1CCC[C@@]1(C)C(=O)N1C[C@@H](C)N(c2ccc(C(=O)Nc3cc(OC(F)(F)F)c(-c4ccc(-c5c[nH]c([C@@H]6CCCN6C(=O)[C@@H](NC(=O)OC)C(C)C)n5)cc4)cc3Cl)cn2)C[C@@H]1C` [Example 28-43], the figure is less than 0.1 nM.

Take `CNC(=O)N1CCN(c2ccc(C(=O)Nc3cc(OC(F)(F)F)c(-c4ccc(-c5c[nH]c([C@@H]6CCCN6C(=O)[C@@H](NC(=O)OC)C(C)C)n5)cc4)cc3OC)cn2)[C@H](C)C1` [Example 27-32]: the EC50 was 0.1 to 1 nM. With `COC(=O)N[C@H](C(=O)N1CCC[C@H]1c1nc(-c2ccc(-c3cc(F)c(NC(=O)c4ccc(N5CCN(C(=O)c6ncccn6)C[C@H]5C)nc4)cc3OC(F)(F)F)cc2)c[nH]1)C(C)C` [Example 27-35], the EC50 is 0.1 to 1 nM.

`COC(=O)N[C@H](C(=O)N1CCC[C@H]1c1nc(-c2ccc(-c3cc(Cl)c(NC(=O)c4ccc(N5CCN(C(=O)[C@]6(C)CCCN6C(=O)[C@@H](N)C(C)C)C[C@H]5C)nc4)cc3OC(F)(F)F)cc2)c[nH]1)C(C)C` [Example 27-75]: the EC50 was less than 0.1 nM. As for `COC(=O)N[C@H](C(=O)N1CCC[C@H]1c1nc(-c2ccc(-c3cc(Cl)c(NC(=O)c4ccc(N5C[C@H](C)N(C(=O)[C@]6(C)CCCN6C(=O)CN(C)C)C[C@H]5C)nc4)cc3OC(F)(F)F)cc2)c[nH]1)C(C)C` [Example 28-41], the figure is less than 0.1 nM; as for `COC(=O)N[C@H](C(=O)N1CCC[C@H]1c1nc(-c2ccc(-c3cc(F)c(NC(=O)c4ccc(N5CCN(C(=O)NC6CC6)C[C@H]5C)nc4)cc3OC(F)(F)F)cc2)c[nH]1)C(C)C` [Example 27-40], 0.1 to 1 nM; as for `COC(=O)N[C@H](C(=O)N1CCC[C@H]1c1nc(-c2ccc(-c3cc(Cl)c(NC(=O)c4ccc(N5CCN(C(=O)c6c[nH]cn6)C[C@H]5C)nc4)cc3OC(F)(F)F)cc2)c[nH]1)C(C)C` [Example 27-66], less than 0.1 nM.

`CNC(=O)N1C[C@@H](C)N(c2ccc(C(=O)Nc3ccc(-c4ccc(-c5c[nH]c([C@@H]6CCCN6C(=O)[C@@H](NC(=O)OC)C(C)C)n5)cc4)nc3C)cn2)C[C@@H]1C` [Example 74]: the EC50 was 1 to 10 nM. As for `COC(=O)N[C@H](C(=O)N1CCC[C@H]1c1nc(-c2ccc(-c3cc(F)c(NC(=O)c4ccc(N5CCN(C(=O)[C@]6(C)CCCN6)C[C@H]5C)nc4)cc3OC(F)(F)F)cc2)c[nH]1)C(C)C` [Example 27-9], the figure is 1 to 10 nM; as for `CNC(=O)C1CCC[C@@]1(C)C(=O)N1C[C@@H](C)N(c2ccc(C(=O)Nc3cc(OC(F)(F)F)c(-c4ccc(-c5c[nH]c([C@@H]6CCCN6C(=O)[C@@H](NC(=O)OC)C(C)C)n5)cc4)cc3Cl)cn2)C[C@@H]1C` (stereo partly drawn) [Example 28-42], less than 0.1 nM. Turning to `COC(=O)N[C@H](C(=O)N1CCC[C@H]1c1nc(-c2ccc(-c3ccc(C(=O)Nc4ccc(N5CCN(C(=O)[C@]6(C)CCCN6C(=O)[C@@H](NC(=O)OC)C(C)O)C[C@H]5C)nc4)cc3OC(F)(F)F)cc2)c[nH]1)C(C)C` (stereo partly drawn) [Example 67], the EC50 was 0.1 to 1 nM. As for `COC(=O)N[C@H](C(=O)N1CCC[C@H]1c1nc(-c2ccc(-c3ccc(C(=O)Nc4ccc(N5CCN(C(=O)[C@]6(C)CCCN6C(=O)[C@@H](NC(=O)OC)C(C)(C)C)C[C@H]5C)nc4)cc3OC(F)(F)F)cc2)c[nH]1)C(C)C` [Example 70], the figure is 0.1 to 1 nM; as for `CCOc1cc(NC(=O)c2ccc(N3CCN(C(=O)c4c[nH]cn4)C[C@H]3C)nc2)ccc1-c1ccc(-c2c[nH]c([C@@H]3CCCN3C(=O)[C@@H](NC(=O)OC)C(C)C)n2)cc1` [Example 24], 0.1 to 1 nM.

For `COC(=O)N[C@H](C(=O)N1CCC[C@H]1c1nc(-c2ccc(-c3cc(Cl)c(NC(=O)c4ccc(N5CCN(C(=O)[C@]6(C)CCCN6C(=O)c6c[nH]cn6)C[C@H]5C)nc4)cc3OC(F)(F)F)cc2)c[nH]1)C(C)C` [Example 27-71], the EC50 is less than 0.1 nM. In the case of `COC(=O)N[C@H](C(=O)N1CCC[C@H]1c1nc(-c2ccc(-c3cc(F)c(NC(=O)c4ccc(N5CCN(C(=O)[C@]6(C)CCCN6C(=O)[C@H](C)O)C[C@H]5C)nc4)cc3OC(F)(F)F)cc2)c[nH]1)C(C)C` [Example 27-49], the EC50 is less than 0.1 nM.

With `COC(=O)N[C@H](C(=O)N1CCC[C@H]1c1nc(-c2ccc(-c3ccc(NC(=O)c4ccc(N5CCN(C(=O)[C@H]6CC6(C)C)C[C@H]5C)nc4)cc3OC(F)(F)F)nc2)c[nH]1)C(C)C` [Example 76, {(S)-1-[(S)-2-(4-{6-[4-({6-[(R)-4-((S)-2,2-Dimethyl-cyclopropanecarbonyl)-2-methyl-piperazin-1-yl]-pyridine-3-carbonyl}-amino)-trifluoromethoxyphenyl]-pyridin-3-yl}-1H-imidazol-2-yl)-pyrrolidine-1-carbonyl]-2-methyl-propyl}-carbamic acid methyl ester], the EC50 is 0.1 to 1 nM. With `COC(=O)N[C@H](C(=O)N1CCC[C@H]1c1nc(-c2ccc(-c3ccc(NC(=O)c4ccc(N5C[C@H](C)N(C(=O)c6c[nH]cn6)C[C@H]5C)nc4)c(C)n3)cc2)c[nH]1)C(C)C` [Example 75] the figure was 1 to 10 nM. As to `COCCNC(=O)N1CCC[C@@]1(C)C(=O)N1CCN(c2ccc(C(=O)Nc3cc(OC(F)(F)F)c(-c4ccc(-c5c[nH]c([C@@H]6CCCN6C(=O)[C@@H](NC(=O)OC)C(C)C)n5)cc4)cc3Cl)cn2)[C@H](C)C1` [Example 27-74], the EC50 was less than 0.1 nM.

`COC(=O)N[C@H](C(=O)N1CCC[C@H]1c1nc(-c2ccc(-c3cc(OC)c(NC(=O)c4ccc(N5CCN(C(=O)c6c[nH]cn6)C[C@H]5C)nc4)cc3OC(F)(F)F)cc2)c[nH]1)C(C)C` [Example 27-29]: the EC50 is 0.1 to 1 nM.

Consider `COC(=O)N[C@H](C(=O)N1CCC[C@H]1c1nc(-c2ccc(-c3ccc(NC(=O)c4ccc(N5C[C@H](C)N(C(=O)C6CC6)C[C@H]5C)nc4)c(C)n3)cc2)c[nH]1)C(C)C` [Example 73], for which the EC50 was 1 to 10 nM.

As to `COC(=O)N[C@H](C(=O)N1CCC[C@H]1c1nc(-c2ccc(-c3cc(F)c(NC(=O)c4ccc(N5CCN(C(=O)[C@]6(C)CCCN6C(=O)OC(C)(C)C)C[C@H]5C)nc4)cc3OC(F)(F)F)cc2)c[nH]1)C(C)C` [Example 27-8], the EC50 was less than 0.1 nM. As to `COC(=O)N[C@H](C(=O)N1CCC[C@H]1c1nc(-c2ccc(-c3cc(Cl)c(NC(=O)c4ccc(N5CCN(C(=O)[C@]6(C)CCCN6C(=O)CO)C[C@H]5C)nc4)cc3OC(F)(F)F)cc2)c[nH]1)C(C)C` [Example 27-76], the EC50 was less than 0.1 nM.
